Where two headings read alike, the source gives them in different places. Some results are limits rather than exact numbers.

The subject of data set [1] is LCC6 cells. Kind of data set: Tumor cell line cytotoxicity of flavonoid dimers, LCC6. Conditions: IC50 of compound alone, 72 hrs. In kind it is cell-based, human. In outline: (§1)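 LCC6, LCC6MDR and L929 cells seeded at 1×10^4 cells/well and exposed to graded doses of flavonoid dimers. Incubation 72 hrs at 37° C., 5% CO2. Read-out: % survivors.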
Data set [2] has as its target T1, Pgp (LCC6MDR cells) (Homo sapiens, UniProt P08183).
Method: (§3) Cell Proliferation Assay. 6,000 cells of LCC6 or LCC6MDR and anticancer drugs (paclitaxel, vinblastine, vincristine, doxorubicin and mitoxantrone) were mixed with or without modulators to a final volume of 200 μL in each well of 96-well plates. […] The plates were then incubated for 5 days at 37° C. […] IC50 values were calculated from the dose-response curves of MTS assays (Prism 4.0).
Data set [3] concerns LCC6MDR cells. Kind of data set: Tumor cell line cytotoxicity of flavonoid dimers, LCC6MDR. In kind it is cell-based, human. Conditions: IC50 of compound alone, 72 hrs. In outline:
as §1

The subject of data set [4] is L929 cells. Put plainly: Cytotoxicity of flavonoid dimers, L929 mouse fibroblast. The class given is cell-based. In a few lines: as §1
Data set [5] concerns LCC6, LCC6MDR and L929 cell lines. Kind of data set: Cytotoxicity over LCC6, LCC6MDR and L929 cell lines. The class given is cell-based, human, mouse. How it is done: (b) Tumor Cell Line Cytotoxicity. The tumor cytotoxicity assays of flavonoid dimers were performed against LCC6, LCC6MDR and L929 cell lines. The cells were grown in supplemented DMEM media in an atmosphere of 95% air and 5% CO2 at 37° C. In brief, LCC6, LCC6MDR and L929 cells were seeded into 96-well flat bottom microtiter plate at 1×10^4 cells per well in a final volume of 100 μL media, respectively. A graded dose of flavonoid dimers was added into wells. The plate was incubated at 37° C. for 72 hrs at the atmosphere 5% CO2 in the air. The % of survivors was determined.

The subject of data set [6] is Ld39 promastigotes (SSG-resistant). Kind of data set: In vitro anti-promastigote activity, Ld39. The class given is cell-based, Leishmania donovani. Conditions: 3 days at 27° C., MTS; read-out: Anti-promastigotes activity (IC50, μM) Ld39. In a few lines: (§2)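 L. donovani (LdAG83 wild type, SSG-resistant Ld39) and L. major Lm50122 promastigotes were seeded at 1×10^5 per well with a concentration series of compound.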

Data set [7] addresses T1, Pgp (LCC6MDR cells). Put plainly: Cell proliferation assay: Pgp-modulating activity, reversal of anticancer drug resistance in LCC6MDR cells. The conditions noted are these: for RF (Relative Fold), cpd at 0.5 μM: RF = (IC50 without modulator)/(IC50 with 0.5 μM modulator); for RF (Relative Fold), cpd at 0.5 μM / RF (Relative Fold), cpd at 1 μM: paclitaxel, LCC6MDR; for RF (Relative Fold), cpd at 1 μM: RF = (IC50 without modulator)/(IC50 with 1.0 μM modulator).
Method: as §3

Data set [8] has as its system LdAG83 promastigotes (wild type). Kind of data set: In vitro anti-promastigote activity, LdAG83. The conditions noted are these: 3 days at 27° C., MTS; read-out: Anti-promastigotes activity (IC50, μM) LdAG83. The class given is cell-based, Leishmania donovani. In a few lines:
as §2

For data set [9], the system named is Raw264.7 cells. Kind of data set: Cytotoxicity, mouse macrophage Raw264.7. Conditions: 72 hrs. In kind it is cell-based. In outline:
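Raw264.7 (1×10^4 cells/well) and primary PEM cells (2×10^4 cells/well) in supplemented DMEM received graded compound doses and were incubated 72 h at 37 °C, 5% CO2. Percent survivors determined; cytotoxicity IC50 used for therapeutic index against antileishmanial IC50.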

The subject of data set [10] is Lm50122 promastigotes. Put plainly: In vitro anti-promastigote activity, Lm50122. Conditions: 3 days at 27° C., MTS; read-out: Anti-promastigotes activity (IC50, μM) Lm50122. The class given is cell-based, Leishmania major. In outline:
as §2

Data set [11] deals with LCC6 cells. Kind of data set: Doxorubicin accumulation in LCC6 cells. In kind it is cell-based, human. The conditions noted are these: 1 μM. An excerpt: Doxorubycin accumulation. […] […].

T1 sequence (P08183 whole entry): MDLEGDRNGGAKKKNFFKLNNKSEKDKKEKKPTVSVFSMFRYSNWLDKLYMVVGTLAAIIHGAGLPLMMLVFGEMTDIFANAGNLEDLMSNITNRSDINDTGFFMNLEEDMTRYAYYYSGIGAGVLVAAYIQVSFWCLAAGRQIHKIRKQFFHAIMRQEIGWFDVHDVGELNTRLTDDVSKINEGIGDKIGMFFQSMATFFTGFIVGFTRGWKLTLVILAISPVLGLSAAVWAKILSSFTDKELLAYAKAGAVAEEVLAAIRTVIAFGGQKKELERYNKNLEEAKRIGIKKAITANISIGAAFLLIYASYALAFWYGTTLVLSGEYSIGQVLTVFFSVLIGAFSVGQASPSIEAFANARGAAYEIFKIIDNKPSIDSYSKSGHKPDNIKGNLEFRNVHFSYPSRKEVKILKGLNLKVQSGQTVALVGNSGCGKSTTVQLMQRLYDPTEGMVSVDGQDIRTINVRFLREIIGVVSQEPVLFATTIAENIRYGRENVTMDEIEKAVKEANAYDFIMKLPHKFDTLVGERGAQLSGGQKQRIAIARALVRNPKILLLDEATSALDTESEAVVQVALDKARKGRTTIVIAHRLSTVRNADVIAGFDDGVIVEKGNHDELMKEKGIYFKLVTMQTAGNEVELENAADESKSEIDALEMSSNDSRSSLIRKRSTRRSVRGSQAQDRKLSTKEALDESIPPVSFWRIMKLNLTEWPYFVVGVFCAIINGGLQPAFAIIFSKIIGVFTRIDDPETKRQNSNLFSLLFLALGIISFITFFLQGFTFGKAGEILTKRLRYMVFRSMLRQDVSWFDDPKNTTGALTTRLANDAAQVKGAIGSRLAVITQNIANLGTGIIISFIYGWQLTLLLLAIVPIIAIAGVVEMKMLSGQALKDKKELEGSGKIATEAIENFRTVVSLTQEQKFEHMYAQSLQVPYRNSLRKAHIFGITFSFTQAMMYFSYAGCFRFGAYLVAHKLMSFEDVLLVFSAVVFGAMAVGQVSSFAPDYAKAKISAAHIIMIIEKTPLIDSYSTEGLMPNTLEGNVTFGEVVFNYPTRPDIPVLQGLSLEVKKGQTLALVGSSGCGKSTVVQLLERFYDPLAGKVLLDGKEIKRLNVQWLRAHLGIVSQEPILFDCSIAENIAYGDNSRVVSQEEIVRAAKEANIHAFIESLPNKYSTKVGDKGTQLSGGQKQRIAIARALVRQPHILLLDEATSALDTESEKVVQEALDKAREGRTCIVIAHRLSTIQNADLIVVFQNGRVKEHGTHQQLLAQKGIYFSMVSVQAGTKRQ

In the case of “1,13-Bis[4′-((5-hydroxy)-4H-chromen-4-on-2-yl)phenyl]-7-(tert-butyloxycarbonyl)-1,4,10,13-tetraoxa-7-azamidecane [Compound 16f]”, the IC50 in data set [1], in data set [3] and in [4] was > 100 µM each time. In addition, the “RF (Relative Fold), cpd at 0.5 μM” value in [2] was “(11.3)”.

Consider `CCN(CCOCCOc1ccc(-c2cc(=O)c3ccccc3o2)cc1)CCOCCOc1ccc(-c2cc(=O)c3ccccc3o2)cc1` [Compound 13, 1,13-Bis[4′-(4H-chromen-4-on-2-yl)phenyl]-N-(ethyl)-1,4,10,13-tetraoxa-7-azamidecane], for which the IC50 in data set [5] is 6.9 to 17.3 µM; in data set [6], 5.5 ± 1.1 µM; in data set [1], 10.3 ± 2.2 µM; in [3], 17.3 ± 3.8 µM; in data set [8], 3.2 ± 0.8 µM; in [4] it was 6.9 ± 2 µM. The compound also showed a 50% inhibitory concentration (IC50) in [9] of 8.3 ± 1 µM. Also, in data set [2], the EC50 is 0.2 µM. Further, the Therapeutic index in data set [7] (IC50 of compounds for L929/EC50 of compounds for lowering paclitaxel drug resistance) is given as 34.5. Further, the “RF (Relative Fold), cpd at 0.5 μM” value in data set [7] is “(26.9)”.

As for `O=c1cc(-c2ccc(OCCOCCN(CCO)CCOCCOc3ccc(-c4cc(=O)c5ccccc5o4)cc3)cc2)oc2ccccc12` [Compound 14, 1,13-Bis[4′-(4H-chromen-4-on-2-yl)phenyl]-N-(2-hydroxyethyl)-1,4,10,13-tetraoxa-7-azamidecane], the IC50 was 6.9 to 14.8 µM in [5]; 7.2 ± 2.2 µM in [6]; 10.7 ± 3.3 µM in [1]; 14.8 ± 5.9 µM in [3]; 3.2 ± 1.1 µM in [8]; 6.9 ± 1.4 µM in [4]. In data set [9], this compound gave a half-inhibitory concentration (IC50) of 6.4 ± 1.5 µM. For the same compound, in [7], the “RF (Relative Fold), cpd at 0.5 μM” value is given as “(5.0)”.

Consider `CCOC(=O)CCN(CCOCCOc1ccc(-c2cc(=O)c3ccccc3o2)cc1)CCOCCOc1ccc(-c2cc(=O)c3ccccc3o2)cc1` [Compound 15, 1,13-Bis[4′-(4H-chromen-4-on-2-yl)phenyl]-N-(3-ethoxy-3-oxopropyl)-1,4,10,13-tetraoxa-7-azamidecane], for which the half-inhibitory concentration (IC50) is 13.5 to 17.7 µM in data set [5]; 6.6 ± 0.2 µM in data set [6]; 13.5 ± 0.5 µM in data set [1]; 17.7 ± 3.7 µM in data set [3]; 3.8 ± 0.8 µM in [8]; 18.1 ± 3.4 µM in data set [4]. Moreover, the “RF (Relative Fold), cpd at 0.5 μM” value in data set [7] was “(5.3)”.

On to `CC(C)(C)OC(=O)N(CCOCCOc1ccc(-c2cc(=O)c3c(OCc4ccccc4)cccc3o2)cc1)CCOCCOc1ccc(-c2cc(=O)c3c(OCc4ccccc4)cccc3o2)cc1` [Compound 16e, 1,13-Bis[4′-((5-benzyloxy)-4H-chromen-4-on-2-yl)phenyl]-7-(tert-butyloxycarbonyl)-1,4,10,13-tetraoxa-7-azamidecane], for which the half-inhibitory concentration (IC50) in data set [1] and in data set [3] was > 100 µM in each case. The “RF (Relative Fold), cpd at 0.5 μM” value in data set [2] is recorded as “(1.1)”.

In the case of `CC(C)(C)OC(=O)N(CCOCCOc1ccc(-c2oc3ccccc3c(=O)c2OCc2ccccc2)cc1)CCOCCOc1ccc(-c2oc3ccccc3c(=O)c2OCc2ccccc2)cc1` [Compound 16g, 1,13-Bis[4′-((3-benzyloxy)-4H-chromen-4-on-2-yl)phenyl]-7-(tert-butyloxycarbonyl)-1,4,10,13-tetraoxa-7-azamidecane], in data set [2], the “RF (Relative Fold), cpd at 1 μM” value is listed as 1.2.

Regarding `Cc1ccc2oc(-c3ccc(OCCOCCN(CCOCCOc4ccc(-c5cc(=O)c6cc(C)ccc6o5)cc4)C(=O)OC(C)(C)C)cc3)cc(=O)c2c1` [Compound 17c, 1,13-Bis[4′-((6-methyl)-4H-chromen-4-on-2-yl)phenyl]-N-(tert-butyloxycarbonyl)-1,4,10,13-tetraoxa-7-azamidecane], the half-maximal inhibitory concentration (IC50) in [5] was > 100 µM; in data set [6] it was 100 µM; in data set [1] it was > 100 µM; in [10] it was > 100 µM; in [3], > 100 µM; in data set [8] it was 21 µM. Moreover, the IC50 in data set [4] and in data set [9] was > 100 µM each time. For the same compound, the “RF (Relative Fold), cpd at 0.5 μM” value in data set [7] is recorded as “(9.6)”. In addition, the results for the “RF (Relative Fold), cpd at 1 μM” value in [7] and in [7] (listed as 17) were “(139.2)” and 139.0, respectively.

For `COc1ccc(CCN(C)CCCC(C#N)(c2ccc(OC)c(OC)c2)C(C)C)cc1OC` (stereo not drawn) [Verapamil, verapamil, reference compound], the “Effect on intracellular doxorubicin accumulation in parental LCC6” value in data set [11] is given as “does not increase”.

The values above are taken from patent US8980848B2, “Flavonoid dimers and their use” (The Hong Kong Polytechnic University, priority 2010, dated 2015).
